The results in this text go back to article PMC8930067 (Cardiovascular Research, 2021).

This experiment has as its target SERCA2a (Rattus norvegicus, UniProt P11507). As to the kind of experiment: […]-ATP hydrolysis. In kind it is cell-based. The note with it: read-out: % Vmax at 500 nmol/L.

Counter-ions that a name gives are not always drawn.

SERCA2a, sequence (P11507 1-997 isoform P11507-2): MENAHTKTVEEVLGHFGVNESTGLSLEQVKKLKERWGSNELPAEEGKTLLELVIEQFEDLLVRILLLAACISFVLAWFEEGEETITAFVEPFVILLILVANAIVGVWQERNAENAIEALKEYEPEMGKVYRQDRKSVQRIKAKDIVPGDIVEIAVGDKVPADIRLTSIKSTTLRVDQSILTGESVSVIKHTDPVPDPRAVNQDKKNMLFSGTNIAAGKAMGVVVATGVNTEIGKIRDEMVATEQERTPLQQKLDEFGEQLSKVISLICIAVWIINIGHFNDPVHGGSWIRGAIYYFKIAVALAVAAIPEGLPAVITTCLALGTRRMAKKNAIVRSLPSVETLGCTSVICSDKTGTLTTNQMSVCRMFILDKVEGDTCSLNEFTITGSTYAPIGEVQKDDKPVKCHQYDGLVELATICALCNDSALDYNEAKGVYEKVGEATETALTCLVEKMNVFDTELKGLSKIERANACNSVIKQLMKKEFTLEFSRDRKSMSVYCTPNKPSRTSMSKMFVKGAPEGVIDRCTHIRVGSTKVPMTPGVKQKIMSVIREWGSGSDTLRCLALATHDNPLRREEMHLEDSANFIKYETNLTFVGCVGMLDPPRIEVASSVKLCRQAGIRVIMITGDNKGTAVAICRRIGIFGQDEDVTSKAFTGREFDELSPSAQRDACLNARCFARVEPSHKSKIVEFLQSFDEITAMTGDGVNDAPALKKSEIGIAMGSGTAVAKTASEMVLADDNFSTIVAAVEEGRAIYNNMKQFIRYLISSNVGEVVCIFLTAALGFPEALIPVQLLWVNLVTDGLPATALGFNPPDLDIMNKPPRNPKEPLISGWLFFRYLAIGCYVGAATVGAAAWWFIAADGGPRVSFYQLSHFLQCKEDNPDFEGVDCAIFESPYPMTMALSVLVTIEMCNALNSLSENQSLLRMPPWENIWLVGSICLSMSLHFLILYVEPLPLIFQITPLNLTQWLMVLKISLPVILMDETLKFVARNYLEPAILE

For the molecule `C[C@]12CCC(=NOCCN)C[C@@H]1C(=O)C[C@@H]1[C@@H]2CC[C@]2(C)C(=O)CC[C@@H]12` [istaroxime, (E,Z)-3-((2-aminoethoxy)imino)androstane-6,17-dione hydrochloride], the activation at 0.5 µM turned out to be 25%.
